Patent US20080171059A1, “METHODS AND COMPOSITIONS FOR INCREASED PRIMING OF T-CELLS THROUGH CROSS-PRESENTATION OF EXOGENOUS ANTIGENS” (priority 2006, published 2008)

Experiments:
[1] = test system: CD8+ T cell line specifically recognizing the N9V/HLA-A*0201 complex; assay: Cross-presentation assay: yeast-fed monocyte-derived DCs stimulate IFNγ secretion in co-cultured N9V-specific CD8+ T cells; assay type: cell-based, human
Method: An interferon gamma (IFNY) secretion cell capture FACS assay was performed on the T cells to quantify the percentage of cells that had been activated as a result of cross-presentation by the DCs.
The monocytes were aliquoted into vials and cryopreserved in 90% fetal bovine serum (FBS), 10% DMSO. […] Unless otherwise indicated, media components were from Hyclone (Logan, Utah); low endotoxin products were chosen where available. 4-5×10^6 monocytes were cultured per well of a 6-well plate in 2.5 ml C10 medium supplemented with 1000 U/ml each of interleukin-4 and granulocyte-macrophage colony stimulating factor (C10GF; cytokines from R & D Systems, Minneapolis, Minn.). After 2 and 4 days of culture, each well was topped up with 0.5 ml C10GF; after 6 days of culture, floating and loosely adherent monocyte-derived DCs were harvested by gentle resuspension.
Cross-presentation Assay After 6 days of differentiation, monocyte-derived DCs were seeded in 96-well round bottom plates at 1 or 2×10^5 cells in 200 μl C10GF per well. Appropriate numbers of yeast cells (measured by optical density at 600 nm with 10D≈10^7/ml) were rendered non-viable by UV-irradiation (2×1000 J/m^2 in a Stratalinker, Stratagene, La Jolla, Calif.), pelleted by centrifugation and added to the DCs. For inhibition experiments, DCs were pre-incubated with lactacystin (5 μM; Calbiochem, San Diego, Calif.) or chloroquine (25 μM) for one hour before yeast samples were introduced. […] Following 4 h of co-culture, the contents of each well were transferred to tubes for labeling with Miltenyi's IFNY secretion assay kit (Bergisch Gladbach, Germany) according to the recommended protocol. […] The percentage of CD8^+ cells that were IFNY+ was determined by flow cytometry (Coulter Epics XL, Fullerton, Calif. or BD FACSCalibur). The cut-off PE fluorescence was set for each experiment such that about 0.5% of T cells were IFNY+ in a negative control sample (no yeast or peptide).
Surface Display Antigen Dose Normalization In experiments where different linkers were used to surface-display antigen, several cultures of each yeast sample were induced, and cultures with mean antigen levels within 10% of each other were selected to minimize the effect of variable antigen dose on cross-presentation. […] Therefore, each yeast sample was mixed with the appropriate amount of EBY100 yeast to normalize the antigen dose while maintaining the 20:1 ratio of yeast to DCs.

Cathepsin S = Cathepsin S (Homo sapiens, UniProt P25774); assay: Cleavage of antigen sequences by Cathepsin S; assay type: biochemical; conditions: cleavage positions MQ|AE and NLVPMVA|TV
Cathepsin S, sequence (P25774 115-331): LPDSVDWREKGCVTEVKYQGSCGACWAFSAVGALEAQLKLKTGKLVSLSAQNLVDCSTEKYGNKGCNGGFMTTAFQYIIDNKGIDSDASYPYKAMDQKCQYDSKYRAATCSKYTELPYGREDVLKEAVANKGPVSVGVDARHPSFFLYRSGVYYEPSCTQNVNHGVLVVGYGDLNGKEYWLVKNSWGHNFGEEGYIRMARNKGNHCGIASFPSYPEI

`CC(=O)N[C@@H](CSC(=O)[C@]1([C@@H](O)C(C)C)NC(=O)[C@H](C)[C@@H]1O)C(=O)O` [lactacystin] was tested, and the “Effect of inhibitor on cross-presentation of surface-displayed antigen” value ([1]; EBYN9V yeast 20:1, lactacystin 5 μM or chloroquine 25 μM added one hour before yeast) was “strongly inhibited”, the “Effect of inhibitor on cross-presentation of strains with deleted, C1 and (C1)4 linkers” value ([1]; all three integrated strains, lactacystin 5 μM or chloroquine 25 μM) was “inhibited” and the “Effect of inhibitor on cross-presentation of intracellular antigen” value ([1]; yeast expressing Aga2p-N9V intracellularly 20:1, lactacystin 5 μM or chloroquine 25 μM) was “inhibited”.

For “ARNLVPMVATVQGQN [15-mer extended CMV pp 65 peptide containing N9V, positive control]”, the “Percentage of IFNγ+ T cells” value ([1]; positive control, 1 μM extended peptide) was 45-70%.

With “NLVPMVATV [cytomegalovirus epitope, HLA-A*0201-restricted peptide derived from CMV phosphoprotein pp 65]” the “Cleavage by Cathepsin S” value (Cathepsin S) was “cleaved rapidly”.
